Measurements as given in patent publication US10968265B2, “Antibody-coupled cyclic peptide tyrosine tyrosine compounds as modulators of neuropeptide Y receptors” (Janssen Pharmaceutica NV, priority 2016, dated 2021).

Columns and labels:
[1] = Weight loss in diet-induced obese mice: chronic dosing; type: in vivo, mouse; conditions: for body weight: 0.3 nmol/kg s.c. every day
Protocol: (§1) Compound 1 was evaluated for its ability to reduce foot intake and body weight and improve glucose homeostasis on repeat dosing in male DIO C57Bl/6 mice over a period of 8 days. Male DIO C57BL/6N mice (20 weeks of age, 14 weeks on high fat diet) were obtained from Taconic Laboratory. […] Animals were acclimated to the facility for at least one week prior to the start of the experiment.
(§2) The day prior to dosing, mice were grouped based on individual body weights. At 3:00-4:00 pm for each of the next 8 days, animals and food intake were weighed. […] After 8 days, mice are fasted for 5 hours and then given a 2 g/kg bolus of glucose orally at t=0. At t=0, 30, 60, 90, and 120 minutes post glucose challenge blood glucose is measured and at t=0, 30, and 90 minutes blood in drawn to measure plasma insulin. […] All data are presented as the mean±SEM (FIG. 7, FIG. 8, and Tables 8-11).

[2] = OGTT after 8 days of treatment in DIO mice; type: in vivo, mouse; conditions: 0.3 nmol/kg every day
Protocol: as §1, §2

[3] = Single dose, food intake and body weight in Sprague-Dawley rats; type: in vivo, rat; design: body weight change: unit not given here; conditions: single dose 0.3 nmol/kg s.c. (Dulaglutide); for absolute body weight: in g (unit assumed)
Protocol: Compound 1 was evaluated for its ability to reduce foot intake and body weight in Sprague-Dawley after a single dose. The animals were obtained from Charles River Labs (Wilmington, Mass.) at 200-225 g body weight and used within one week of delivery. They were housed one per cage on alpha dry bedding and a plastic tube for enrichment in a temperature-controlled room with 12-hour light/dark cycle. […] Animal weights were taken and recorded for each rat prior to dosing.
Body weights and food intake were measured 1, 2 and 3 days after dosing and the percentages of weight loss and reduction in food intake were calculated. […] All data are presented as the mean±SEM (Tables 18-20).

Dulaglutide
fed Blood Glucose ([1]; 0.3 nmol/kg every day, after 8 days of treatment): 114 ± 13 mg/dL
body weight ([1]; Day 0): 45.9 ± 0.6 g
body weight ([1]; Day 1): 44.1 ± 0.6 g
body weight ([1]; Day 2): 42.2 ± 0.6 g
body weight ([1]; Day 3): 40.6 ± 0.6 g
body weight ([1]; Day 4): 39.3 ± 0.6 g
body weight ([1]; Day 5): 38.1 ± 0.7 g
body weight ([1]; Day 6): 37.1 ± 0.8 g
body weight ([1]; Day 7): 36.4 ± 1.0 g
body weight ([1]; Day 8): 36.5 ± 1.1 g
body weight ([1]; Day −1): 46.3 ± 0.6 g
blood glucose (mg/dL) during OGTT ([2]; 0 min after glucose challenge): 76 ± 9 mg/dL
insulin (ng/mL) during OGTT ([2]; 0 min after glucose challenge): 0.6 ± 0.1 ng/mL
blood glucose (mg/dL) during OGTT ([2]; 30 min after glucose challenge): 151 ± 14 mg/dL
insulin (ng/mL) during OGTT ([2]; 30 min after glucose challenge): 1.7 ± 0.2 ng/mL
blood glucose (mg/dL) during OGTT ([2]; 60 min after glucose challenge): 174 ± 17 mg/dL
blood glucose (mg/dL) during OGTT ([2]; 90 min after glucose challenge): 104 ± 10 mg/dL
insulin (ng/mL) during OGTT ([2]; 90 min after glucose challenge): 0.7 ± 0.2 ng/mL
blood glucose (mg/dL) during OGTT ([2]; 120 min after glucose challenge): 119 ± 9 mg/dL
glucose Delta AUC (mg/dl/120 min) ([2]; OGTT): 6668 ± 1846 mg/dl/120 min
glucose Total AUC (mg/dl/120 min) ([2]; OGTT): 15758 ± 1054 mg/dl/120 min
body weight change ([3]; Day 0): 0.0 ± 0.0
daily food intake ([3]; Day 0): 26.6 ± 0.8
absolute body weight ([3]; Day 0): 270.3 ± 3.0
body weight change ([3]; Day 1): 10.6 ± 1.6
daily food intake ([3]; Day 1): 27.3 ± 1.2
absolute body weight ([3]; Day 1): 280.8 ± 4.2
body weight change ([3]; Day 2): 22.5 ± 0.8
daily food intake ([3]; Day 2): 30.0 ± 0.7
absolute body weight ([3]; Day 2): 292.47 ± 3.6
body weight change ([3]; Day 3): 28.7 ± 0.6
daily food intake ([3]; Day 3): 30.1 ± 0.7
absolute body weight ([3]; Day 3): 299.0 ± 3.3
body weight change ([3]; Day −1): −6.3 ± 0.8
absolute body weight ([3]; Day −1): 264.0 ± 3.1
Total Food Consumption ([3]; over three days): 87.4 ± 2.0
